Laboratory results reported in patent US20240374738A1, “BIFUNCTIONAL COMPOUND CAPABLE OF DEGRADING RECEPTOR TYROSINE KINASE AND APPLICATION THEREOF” (TAIBIDI PHARMACEUTICAL TECHNOLOGY (SHIJIAZHUANG) CO., LTD., priority 2023, published 2024).
Where a SMILES comes first, the peptide text is derived from it. The star is where a group is joined. Cbz = O=C(OCc1ccccc1)*

Tests used:
Format in all cases: cell-based
[1] = molecular target: T1, DDR1 (Homo sapiens, UniProt Q08345); test: Competition inhibition experiments (DDR1 Western blot); set-up: endogenous in cells; host or cells: unnamed tumor cells; details: TPD12140 100 nM plus different concentrations of competitor, 24 h
Description: Tumor cells were taken and inoculated into 6-well plates with 1×3×10^5 cells per well, and the cell growth status was observed on the next day. When the cells reached 80% confluence, TPD12140 (working concentration 100 nM) and different concentrations of cabozantinib or lenalidomide were added to the cell culture medium of the experimental group, and the control group was added with an equal volume of DMSO, and the incubation was continued for 24 h. Western Blot was performed to detect the expression of DDR1 protein (the same operation as above). The experiments were repeated three times or more, and the experimental data were statistically analyzed using GraphPad Prism software.

[2] = test system: SNU5; test: Growth inhibition of gastric cancer cells SNU5 (CCK-8); details: Homo sapiens, SNU-5, half inhibitory concentration, 72 hours
How it was run: (§1)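 MKN45 or SNU5 cells in 96-well plates were treated with compound dilution series in triplicate for 72 h. Viability was read by CCK-8 (1 h, absorbance 450 nm), and inhibition was calculated against blank and medium-only controls. IC50 came from concentration-response curves.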

[3] = molecular target: T1, DDR1; test: Degradation of DDR1 in tumor cell MKN45 (Western blot); set-up: The degradation activity of the compounds against DDR1 in the MKN45 cell line; endogenous in cells; host or cells: MKN45; details: MKN-45, maximum degradation percentage, MKN45 cells, 24 hours
How it was run: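 MKN45 gastric cancer cells were treated with compound dilutions for 24 h at a final DMSO of 0.5%; the 2 mM–200 nM series is the added solution, not the final concentration. DDR1 in lysates was quantified by Western blot, normalized to GAPDH and expressed relative to blank control, giving DC50 and Dmax.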

[4] = test system: MKN45; test: Growth inhibition of gastric cancer cells MKN45 (CCK-8); details: Homo sapiens, MKN-45, half inhibitory concentration, 72 hours
How it was run: as §1

[5] = molecular target: T1, DDR1; test: Experiments with inhibitors of the ubiquitin-proteasome system (DDR1 Western blot); set-up: endogenous in cells; host or cells: unnamed tumor cells; details: MG132 10 uM or MLN4924 1 uM for 6 hours, then TPD12140 100 nM 18 h
Description: Tumor cells were inoculated into 6-well plates with 1-3×10^5 cells per well, and the cell growth status was observed the next day. When the cells grew to about 80% confluence, the proteasome inhibitor MG132 (working concentration 10 uM) or the protein ubiquitination inhibitor MLN4924 (working concentration 1 uM) was added to the cell culture medium of the experimental group, and an equal volume of DMSO was added to the control group, and the incubation was continued for 6 hours. The medium in the well plates was discarded, washed twice with PBS, fresh medium was added, and compound TPD12140 (working concentration 100 nM) or an equal volume of DMSO was added to each group of cells, and the incubation was continued for 18 h. Western Blot was performed to detect the expression of DDR1 protein (same operation as above). The experiments were repeated three times or more, and the experimental data were statistically analyzed using GraphPad Prism software.

T1 sequence (Q08345 19-913): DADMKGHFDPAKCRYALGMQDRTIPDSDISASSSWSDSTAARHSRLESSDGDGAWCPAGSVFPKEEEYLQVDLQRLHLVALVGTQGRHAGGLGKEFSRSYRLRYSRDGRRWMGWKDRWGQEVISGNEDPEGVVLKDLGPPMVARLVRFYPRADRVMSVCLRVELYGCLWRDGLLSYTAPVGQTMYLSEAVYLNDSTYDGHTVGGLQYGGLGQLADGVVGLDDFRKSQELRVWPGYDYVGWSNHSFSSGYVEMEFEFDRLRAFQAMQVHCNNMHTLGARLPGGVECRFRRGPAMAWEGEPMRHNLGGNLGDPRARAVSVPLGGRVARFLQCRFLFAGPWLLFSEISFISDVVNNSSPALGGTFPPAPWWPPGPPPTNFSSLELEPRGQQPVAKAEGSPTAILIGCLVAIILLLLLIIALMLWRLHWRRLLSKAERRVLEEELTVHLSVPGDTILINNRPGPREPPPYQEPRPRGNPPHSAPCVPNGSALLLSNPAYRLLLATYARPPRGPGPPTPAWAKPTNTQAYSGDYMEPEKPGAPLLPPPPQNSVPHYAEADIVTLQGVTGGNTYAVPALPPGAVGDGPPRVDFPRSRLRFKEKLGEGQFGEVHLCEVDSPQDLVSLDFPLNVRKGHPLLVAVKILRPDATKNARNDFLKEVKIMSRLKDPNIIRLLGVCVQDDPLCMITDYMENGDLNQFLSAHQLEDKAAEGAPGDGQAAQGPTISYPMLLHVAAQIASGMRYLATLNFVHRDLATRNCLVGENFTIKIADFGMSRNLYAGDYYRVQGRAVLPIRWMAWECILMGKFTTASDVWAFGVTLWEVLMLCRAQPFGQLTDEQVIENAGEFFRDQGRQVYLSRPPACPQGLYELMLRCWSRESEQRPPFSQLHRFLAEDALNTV

SMILES | IC50 [2] [nM] | Dmax [3] [%] | IC50 [4] [nM] | effect of competitor on degradation of DDR1 by TPD12140 [1] | effect of inhibitor on degradation of DDR1 by TPD12140 [5]
Nc1cccc2c1CN(C1CCC(=O)NC1=O)C2=O (stereo not drawn) [lenalidomide] | – | – | – | inhibits the degradation of DDR1 by the compound | –
COc1cc2c(Oc3ccc(NC(=O)C4(C(=O)Nc5ccc(F)cc5)CC4)cc3)ccnc2cc1N1CCC(C(=O)NCCCCC(=O)N[C@H](C(=O)N2C[C@H](O)C[C@H]2C(=O)NCc2ccc(-c3scnc3C)cc2)C(C)(C)C)CC1 [TPD5453] | 500 to 1000 | 75 to 85 | 1000 to 3000 | – | –
C[C@@H](Oc1cc(-c2cnn(C3CCN(CCN4CCN(c5ccc6c(c5)C(=O)N(C5CCC(=O)NC5=O)C6=O)CC4)CC3)c2)cnc1N)c1c(Cl)ccc(F)c1Cl (stereo partly drawn) [TPD10041] | ≤ 100 | > 85 | 500 to 1000 | – | –
COc1cc2c(Oc3ccc(NC(=O)C4(C(=O)Nc5ccc(F)cc5)CC4)cc3)ccnc2cc1N1CCC(C(=O)N[C@H](C(=O)N2C[C@H](O)C[C@H]2C(=O)NCc2ccc(-c3scnc3C)cc2)C(C)(C)C)CC1 [TPD5409] | 100 to 500 | 65 to 75 | 100 to 500 | – | –
COc1cc2c(Oc3ccc(NC(=O)C4(C(=O)Nc5ccc(F)cc5)CC4)cc3)ccnc2cc1N1CCC(CN2C[C@H]3C[C@@H]2CN3CCCNc2cc3c(cn2)C(=O)N(C2CCC(=O)NC2=O)C3)CC1 (stereo partly drawn) [TPD12116] | ≤ 100 | 75 to 85 | ≤ 100 | – | –
COc1cc2c(Oc3ccc(NC(=O)C4(C(=O)Nc5ccc(F)cc5)CC4)cc3)ccnc2cc1N1CCC(N2CC(C(=O)N[C@H](C(=O)N3C[C@H](O)C[C@H]3C(=O)NCc3ccc(-c4scnc4C)cc3)C(C)(C)C)C2)CC1 [TPD5432] | ≤ 100 | 75 to 85 | 100 to 500 | – | –
COc1cc2c(Oc3ccc(NC(=O)C4(C(=O)Nc5ccc(F)cc5)CC4)cc3)ccnc2cc1COCCN1CCN(CCNc2cccc3c2C(=O)N(C2CCC(=O)NC2=O)C3=O)CC1 (stereo not drawn) [TPD5316] | 500 to 1000 | 75 to 85 | 500 to 1000 | – | –
NS(=O)(=O)OC[C@@H]1C[C@@H](n2ccc3c(N[C@H]4CCc5ccccc54)ncnc32)C[C@@H]1O [MLN4924] | – | – | – | – | can inhibit the degradation of the compounds
COc1cc2c(Oc3ccc(NC(=O)C4(C(=O)Nc5ccc(F)cc5)CC4)cc3)ccnc2cc1N1CCC(CN2C3CC2CN(CCNc2cc4c(cn2)C(=O)N(C2CCC(=O)NC2=O)C4)C3)CC1 (stereo not drawn) [TPD12081] | ≤ 100 | 75 to 85 | ≤ 100 | – | –
CC(C)C[C@@H](C=O)NC(=O)[C@H](CC(C)C)NC(=O)[C@H](CC(C)C)NC(=O)OCc1ccccc1 [MG132] (Cbz-Leu-Leu-Leu-aldehyde) | – | – | – | – | can inhibit the degradation of the compounds
CNC(=O)c1ccc(-c2cnc3ncc(Cc4ccc5ncc(NC(=O)CN6CCC(CN7CCN(c8ccc9c(c8)C(=O)N(C8CCC(=O)NC8=O)C9=O)CC7)CC6)cc5c4)n3n2)cc1F (stereo not drawn) [TPD7026] | ≤ 100 | 65 to 75 | ≤ 100 | – | –
C[C@@H](Oc1cc(-c2cnn(C3CCN(CCC(=O)Nc4cccc5c4CN(C4CCC(=O)NC4=O)C5=O)CC3)c2)cnc1N)c1c(Cl)ccc(F)c1Cl (stereo partly drawn) [TPD10040] | ≤ 100 | 75 to 85 | ≤ 100 | – | –
O=C1CCC(N2Cc3cc(C#CCCN4CC5CC(C4)N5CC4CCN(c5cc6nccc(Oc7ccc(NC(=O)C8(C(=O)Nc9ccc(F)cc9)CC8)cc7)c6cc5F)CC4)ccc3C2=O)C(=O)N1 (stereo not drawn) [TPD12237] | ≤ 100 | 65 to 75 | ≤ 100 | – | –
COc1cc2c(Oc3ccc(NC(=O)C4(C(=O)Nc5ccc(F)cc5)CC4)cc3)ccnc2cc1N1CCC(CC(=O)N[C@H](C(=O)N2C[C@H](O)C[C@H]2C(=O)NCc2ccc(-c3scnc3C)cc2)C(C)(C)C)CC1 [TPD5410] | ≤ 100 | 65 to 75 | ≤ 100 | – | –

More lines, main results first:

IC50 [2] [nM] | Dmax [3] [%] | IC50 [4] [nM] | SMILES | effect of competitor on degradation of DDR1 by TPD12140 [1] | effect of inhibitor on degradation of DDR1 by TPD12140 [5]
100 to 500 | 65 to 75 | 100 to 500 | COc1cc2c(Oc3ccc(NC(=O)C4(C(=O)Nc5ccc(F)cc5)CC4)cc3)ccnc2cc1NC(=O)CN1CCC(CN2CCN(c3ccc(N(C)C4CCC(=O)NC4=O)nc3F)CC2)CC1 (stereo not drawn) [TPD5760] | – | –
500 to 1000 | 65 to 75 | 500 to 1000 | COc1cc2c(Oc3ccc(NC(=O)C4(C(=O)Nc5ccc(F)cc5)CC4)cc3)ccnc2cc1NC(=O)CC1CCN(C(=O)CN2CCN(c3ccc4c(c3)C(=O)N(C3CCC(=O)NC3=O)C4=O)CC2)CC1 (stereo not drawn) [TPD5745] | – | –
500 to 1000 | > 85 | 100 to 500 | COc1cc2c(Oc3ccc(NC(=O)C4(C(=O)Nc5ccc(F)cc5)CC4)cc3)ccnc2cc1NCC(=O)N1CCC(CN2CCN(c3ccc(NC4CCC(=O)NC4=O)nc3F)CC2)CC1 (stereo not drawn) [TPD5774] | – | –
100 to 500 | 65 to 75 | 100 to 500 | O=C1CCC(N2C(=O)c3ccc(N4CCN(CCC5CCN(CCNC(=O)c6ccc(-c7cnc8ncc(Cc9ccc%10ncccc%10c9)n8n7)cc6F)CC5)CC4)cc3C2=O)C(=O)N1 (stereo not drawn) [TPD7022] | – | –
100 to 500 | 65 to 75 | 100 to 500 | COc1cc2c(Oc3ccc(NC(=O)C4(C(=O)Nc5ccc(F)cc5)CC4)cc3)ccnc2cc1NC(=O)CCN1CCC(CN2CCN(c3ccc4c(c3)C(=O)N(C3CCC(=O)NC3=O)C4=O)CC2)CC1 (stereo not drawn) [TPD5734] | – | –
100 to 500 | 75 to 85 | 100 to 500 | COc1cc2c(Oc3ccc(NC(=O)C4(C(=O)Nc5ccc(F)cc5)CC4)cc3)ccnc2cc1N1CCC(OCCC(=O)Nc2ccc3c(c2)C(=O)N(C2CCC(=O)NC2=O)C3=O)CC1 (stereo not drawn) [TPD5706] | – | –
